The results in this text go back to patent US20210205322A1, “RICTOR-TARGETED THERAPY IN THE MANAGEMENT OF BRAIN METASTASES” (Albert Einstein College of Medicine, priority 2020, published 2021).

Entries after “also recorded” stand apart in the source; their conditions may differ.

Assay [1] deals with lung cancer cell. The assay is described as follows: SDF-1α-induced invasion and migration (CXCR4 pathway). Type of assay: cell-based. The procedure:
(§1) In vitro Cell Migration and Invasion Assay: The transwell assay was performed according to manufacturer's protocol (Corning, N.Y.). Briefly, the cells were starved for 24 hours and then seeded on the transwell insert (Corning, N.Y.) in 12-well plates. The bottom of the well contained medium with 10% FBS. After 24 hours, the bottom of the inserts were fixed with 70% ethanol and stained with 0.5% crystal violet. The cells were counted triplicate under microscope.
(§2) In the invasion assay, matrigel (0.8 mg/ml) layer was added on the transwell insert first. After the matrigel layer was solidified, the experiment was performed in the same way as the migration assay.

For assay [2], the system named is lung cancer cell. The assay is described as follows: Invasion and migration with AKT inhibitors. Type of assay: cell-based. Conditions: for invasion and migration: AKT inhibitor added to inducible RICTOR knockdown; for lung cancer cell invasion and migration: AKT inhibitor alone, FIG. 10A-E. On the procedure: as §1, §2
(§3) AKT is a downstream effector of the RICTOR-mTOCR2 pathway, to determine its role in RICTOR-mediated metastasis, the effects of two structurally different AKT inhibitors, AR-42 and ipatasertib were inestigated.

The subject of assay [3] is lung cancer cell. The assay is described as follows: Apoptosis (cleaved PARP) with AKT inhibitors. Type of assay: cell-based. Conditions: for apoptosis: AKT inhibitor added to inducible RICTOR knockdown; for apoptosis (cleaved PARP): AKT inhibitor alone. The procedure:
(§4) Immunoblotting and Antibodies: All antibodies were purchased from Cell Signaling Technology (Boston, Mass.). Cell lysate was harvested using RIPA buffer and the supernatant was subjected for following steps after centrifugation. Proteins were subjected to 10% SDS-PAGE gel and transferred onto […] nitrocellulose membrane (Biorad, Calif., USA) for western blot analysis. After incubation with primary antibody overnight at 4° C., the membrane was washed and incubated with secondary antibodies. The final blots were developed with a chemiluminesence system (Promega, Wis., USA).
as §3

Assay [4] has as its system lung cancer cell. The assay is described as follows: Cell proliferation with AKT inhibitors. Conditions: 24-hour treatment. Type of assay: cell-based.
Source text: as §3

For assay [5], the system named is RICTOR-amplified H23 lung cancer cells. The assay is described as follows: Transwell cell migration and invasion assay in H23 cells. Type of assay: cell-based. Conditions: in vitro; FIG. 7C. On the procedure:
as §1, §2

The test system of assay [6] is RICTOR-amplified H1703 lung cancer cells. The assay is described as follows: Transwell cell migration and invasion assay in H1703 cells. Type of assay: cell-based. Conditions: in vitro; FIG. 7C. On the procedure: as §1, §2
For assay [7], the system named is H23 lung cancer cells labeled with luciferase reporter gene. The assay is described as follows: In vivo metastasis assay, stereotactic brain injection model. The arrangement: species or system mouse. From the text:
To further test whether RICTOR amplification affects in vivo metastasis, either the inducible H23-R4 or the parental H23 lung cancer cells labeled with luciferase reporter gene (H23-R4-Luc) were implanted in mouse brain stereotactically.

Another assay deals with PC9 parental cells. The assay is described as follows: Cell growth assay, combined treatment of sapanisertib and EGFR TKIs. Conditions: sapanisertib 5 nM combined with erlotinib, afatinib or osimertinib; FIG. 3C.
In assay [8] the test system is HCC827 OE cells. The assay is described as follows: Transwell cell migration and invasion assay in HCC827 OE cells. Type of assay: cell-based. Conditions: migration and invasion promoted by RICTOR upregulation (doxycycline). On the procedure:
as §1, §2

Another assay relates to PC9-R4. The assay is described as follows: Drug response by clonogenic survival assay in inducible RICTOR knockdown PC9-R4 cells. Type of assay: cell-based. Conditions: for inhibitory effects on cell proliferation: RICTOR knockdown cells vs no knockdown.
Another assay relates to ER cells. The assay is described as follows: ER mouse tumor xenograft model. Type of assay: in vivo, mice. On the procedure:
Xenograft Mouse Studies: Athymic mice (Envigo Laboratory, male, 6-8 weeks old) were inoculated subcutaneously with 5×10^6 NSCLC cells. After 2 days, mice were divided into a vehicle control (water) group and a doxycycline group, with 6 mice in each group. Doxycycline was administered by oral gavage: 100 mg/kg/day. The same volume of water was given to the control group. A total of 20 daily doses were administered in 4 weeks. […] Tumors were measured with calipers twice weekly and the size was calculated as length×width^2/2. The protocol was approved by the Institutional Animal Care and Use Committee.
The in vivo mouse tumor xenograft model was performed using ER cells.

In the next assay the test system is HCC827 OE. Conditions: RICTOR upregulation with doxycycline; FIG. 2C. The procedure:
Next, it was determined whether RICTOR upregulation could result in EGFR TKI resistance. A doxycycline-inducible RICTOR upregulation model in HCC827 cells (HCC827 OE) was generated.

Assay [9] has as its system HCC827 OE cells. The assay is described as follows: Western blot analysis (c-PARP) of osimertinib-treated HCC827 OE cells. Type of assay: cell-based. Conditions: osimertinib-treated cells with RICTOR upregulation; osimertinib 50 nM; FIG. 4D.
Method: Immunoblotting and Antibodies: All antibodies were purchased from Cell Signaling Technology (Boston, Mass.). Cell lysate was harvested using RIPA buffer and the supernatant was subjected for following steps after centrifugation. Proteins were subjected to 10% SDS-PAGE gel and transferred onto 0.45 μM nitrocellulose membrane (Biorad, Calif., USA) for western blot analysis. After incubation with primary antibody overnight at 4° C., the membrane was washed and incubated with secondary antibodies. The final blots were developed with a chemiluminesence system (Promega, Wis., USA).
The subject of assay [10] is erlotinib-resistant HCC827 cell line (ER). The assay is described as follows: MTS cell viability and clonogenic survival assays in erlotinib-resistant HCC827 cells (ER). Type of assay: cell-based. Conditions: Axl-overexpressed ER; FIG. 1I and 1J. On the procedure:
Cell Growth and Viability Assay: The MTS proliferation assay was performed as described in manufacture protocol (Promega, Wis., USA). Cells were seeded at a density of 2000 cells per well in 96-well plates. After incubating with drugs for 72 hours, MTS reagent was added and the absorbance was measured at 490 nm. Viable cell numbers were determined using the MTS assay kit according to the manufacturer's protocol.

The test system of a further assay is ER3-R4. The assay is described as follows: Western blot analysis (c-PARP) of osimertinib-treated ER3-R4 cells. Type of assay: cell-based. Conditions: osimertinib-treated cells with RICTOR knockdown; osimertinib 0.5 μM; FIG. 4D. The procedure:
as §4
To evaluate whether RICTOR-induced Axl upregulation was a common resistant mechanism for EGFR TKIs, Axl signaling in osimertinib-treated ER3-R4 and HCC827 OE cells was examined. […] Taken together, RICTOR positively regulates EGFR TKI resistance by upregulating Axl expression, which seems to be a common resistance mechanism shared by EGFR TKIs.

Method for PC9 parental cells: Clonogenic Survival Assay: Logarithmically growing cells were plated in triplicate. All drugs were added for 72 hours and withdrawn afterwards. After 10-14 days, colonies were fixed with 70% EtOH and stained with 0.5% crystal violet (Sigma Aldrich, St Louis, Mo.). Surviving colonies were defined as colonies containing >50 cells.

For `c1cc(CN2CCCNCCNCCCNCC2)ccc1CN1CCCNCCNCCCNCC1` [AMD3100], in the assay with lung cancer cell [1] (FIG. 11B and C), the “SDF-1α-induced invasion and migration” value is “significantly reduced”.
Regarding `CC(C)[C@H](C(=O)Nc1ccc(C(=O)NO)cc1)c1ccccc1` [AR-42], in the assay on lung cancer cell [2], the invasion and migration result is listed as “significantly further reduced”; the “lung cancer cell invasion and migration” value was “significantly decreased”. In addition, in the assay with lung cancer cell [3], the apoptosis result is reported as “more pronounced apoptosis” and the “apoptosis (cleaved PARP)” value is “increased apoptosis”. For the same compound, in the assay on lung cancer cell [4], the “change in cell proliferation” value is “did not result in significant change”.
Take `CNC(=O)c1cccc(-c2ccc3c(N4CCOC[C@@H]4C)nc(N4CCOC[C@@H]4C)nc3n2)c1` [AZD2014, 3-[2,4-bis[(3S)-3-methylmorpholin-4-yl]pyrido[2,3-d]pyrimidin-7-yl]-N-methylbenzamide]: the migration and invasion result in assay [5] and in [6] was “significantly reduced” in each case.
As to `Nc1cc(C(F)(F)F)c(-c2nc(N3CCOCC3)nc(N3CCOCC3)n2)cn1` [PQR309, 5-(4,6-dimorpholin-4-yl-1,3,5-triazin-2-yl)-4-(trifluoromethyl)pyridin-2-amine], the migration and invasion result in assay [5] and in assay [6] was “significantly reduced” in each case.
In the case of `CC(C)n1nc(-c2ccc3oc(N)nc3c2)c2c(N)ncnc21` [TAK228, 5-(4-amino-1-propan-2-yl-3-pyrazolo[3,4-d]pyrimidinyl)-1,3-benzoxazol-2-amine], the migration and invasion result in assay [5] and in assay [6] was “significantly reduced” throughout. In [7] (P<0.01, FIG. 8B), the “reduction of tumor growth in the brain” value is given as “approximately 75%”. For the same compound, in [7] (after 4 weeks of daily oral lavage, 3 out 7), the near complete responses was found to be 43%. In assay [7] (result in words), the “tumor growth in the brain” value is “remarkably reduced the lung cancer growth in the brain; also recorded: significantly reduced tumor growth in the brain”. Further, the “sensitivity of EGFR TKIs in combined treatment” value in the assay with PC9 parental cells is given as “significantly improved the sensitivity of all three inhibitors”. In the assay with HCC827 OE cells [8], the “cell migration and invasion” value was “inhibited”.
As to `CN(C)C/C=C/C(=O)Nc1cc2c(Nc3ccc(F)c(Cl)c3)ncnc2cc1O[C@H]1CCOC1` [afatinib], the “decrease of IC50 upon RICTOR knockdown” value with PC9-R4 (PC-9 cells, FIG. 3B) is on record as above 10 fold.
In the case of `C#Cc1cccc(Nc2ncnc3cc(OCCOC)c(OCCOC)cc23)c1` [erlotinib], the “inhibitory effects on cell proliferation” value in the assay with PC9-R4 was “higher inhibitory effects”. Also, in the assay on ER cells (combination treatment (RICTOR knockdown and erlotinib), western blot of tumor lysate, FIG. 1H), the “expression of Axl in xenograft tumors” value was “lowest expression of Axl”. For the same compound, the tumor growth entry in the assay with ER cells (combined treatment (RICTOR knockdown by doxycycline and erlotinib), vs either approach alone, P<0.05) was “markedly blocked tumor growth”; with ER cells (erlotinib alone, four weeks of treatment, oral gavage daily), “failed to inhibit tumor growth”.
In the case of `CC(C)NC[C@@H](C(=O)N1CCN(c2ncnc3c2[C@H](C)C[C@H]3O)CC1)c1ccc(Cl)cc1` [ipatasertib], in the assay on lung cancer cell [2], the invasion and migration entry was “significantly further reduced”; the “lung cancer cell invasion and migration” value is listed as “significantly decreased”. In addition, in the assay with lung cancer cell [3], the apoptosis result was “more pronounced apoptosis” and the “apoptosis (cleaved PARP)” value is reported as “increased apoptosis”. Besides, in the assay with lung cancer cell [4], the “change in cell proliferation” value is “did not result in significant change”.
In the case of `C=CC(=O)Nc1cc(Nc2nccc(-c3cn(C)c4ccccc34)n2)c(OC)cc1N(C)CCN(C)C` [osimertinib], the “resistance compared to parental HCC827 cells” value in the assay with HCC827 OE was “more resistant”. In addition, the apoptosis result in the assay with HCC827 OE cells [9] was “less apoptosis”. In addition, in the assay on HCC827-R4, the “decrease of IC50 upon RICTOR knockdown” value is above 10 fold and the “inhibitory effects on cell proliferation” value was “higher inhibitory effects”. In addition, the “drug response of ER” value in assay [10] is on record as “resistance to both inhibitors”. The “apoptosis (c-PARP)” value in the assay with ER3-R4 was “more pronounced apoptosis”. Besides, the “inhibitory effects on cell proliferation” value in the assay with PC9-R4 is “higher inhibitory effects”.
As to SDF-1α, the migration and invasion entry with lung cancer cell [1] (activation of the CXCR4 pathway by treatment with SDF-1α) was “increased migration and invasion”.
